Paper PMC9102502, “The Influence of Selected Antipsychotic Drugs on Biochemical Aspects of Alzheimer’s Disease” (International Journal of Molecular Sciences, 2022)

How the values were obtained:
[1] = target: T1, human erythrocyte acetylcholinesterase (Homo sapiens, UniProt P22303); experiment: AChE inhibition, modified Ellman's method; type: biochemical
T1 construct: solution of hemolyzed erythrocytes diluted 400-fold; from tissue; host or cells: hemolyzed erythrocytes from blood of healthy human donors
T1 sequence (P22303 32-617 isoform P22303-2 limits assumed): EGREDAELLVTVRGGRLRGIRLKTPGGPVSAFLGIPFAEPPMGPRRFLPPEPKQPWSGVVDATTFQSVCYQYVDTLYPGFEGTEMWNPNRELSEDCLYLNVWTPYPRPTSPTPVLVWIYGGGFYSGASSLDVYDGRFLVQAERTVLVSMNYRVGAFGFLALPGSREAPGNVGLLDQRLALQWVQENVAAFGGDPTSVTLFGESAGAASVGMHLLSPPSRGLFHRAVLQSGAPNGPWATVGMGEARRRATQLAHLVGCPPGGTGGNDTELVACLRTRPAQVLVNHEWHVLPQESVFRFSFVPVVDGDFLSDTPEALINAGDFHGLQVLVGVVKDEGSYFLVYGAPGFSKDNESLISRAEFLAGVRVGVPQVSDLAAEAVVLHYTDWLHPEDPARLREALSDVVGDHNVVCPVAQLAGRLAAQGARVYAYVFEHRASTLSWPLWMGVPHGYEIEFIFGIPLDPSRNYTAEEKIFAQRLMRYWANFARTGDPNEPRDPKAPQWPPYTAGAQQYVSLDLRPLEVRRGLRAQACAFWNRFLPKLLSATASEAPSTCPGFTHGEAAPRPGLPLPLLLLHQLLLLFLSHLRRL
Method: (§1) The activity of both cholinesterases (AChE and BuChE) were assessed spectrophotometrically according to the Ellman’s method with some modifications by Worek et al.. This test development included experimental determination of the optimal testing conditions. For all measurements, 37 °C was used as the best temperature for enzymatic determinations in material of human origin.
(§2) The solution of plasma 200-fold diluted with 0.9% NaCl and solution of hemolyzed erythrocytes diluted 400-fold with 0.9% were incubated (37 °C, 15 min) with 5 μL DTNB (0.01 mol/L) and 10 μL tested compound at a wider range of concentration than the therapeutic range in order to assess the overall effect of the compound on human esterases (AChE and BuChE). The controls without antipsychotics, containing only DTNB and diluted plasma or diluted solution of hemolyzed erythrocytes, were prepared. […] The final volume of a sample was 500 μL. […] The maximal velocity of the reaction was determined on the basis of changes in absorbance over time.
(§3) AChE SI (selectivity index) was calculated by using the following formula: SI = IC50 of BuChE/IC50 of AChE. However, BuChE SI was defined as IC50 of AChE/IC50 of BuChE. Maximal velocity (Vmax) and the Michaelis constant (Km) were calculated with the use of linear regression—according to the Hanes–Woolf plot.

[2] = target: T2, human plasma butyrylcholinesterase (Homo sapiens, UniProt P06276); experiment: BuChE inhibition, modified Ellman's method; type: biochemical; settings: control 0.302 ± 0.029 A/min
T2 construct: The solution of plasma 200-fold diluted with 0.9% NaCl; from tissue; host or cells: citrated plasma from blood of healthy human donors
T2 sequence (P06276 29-602): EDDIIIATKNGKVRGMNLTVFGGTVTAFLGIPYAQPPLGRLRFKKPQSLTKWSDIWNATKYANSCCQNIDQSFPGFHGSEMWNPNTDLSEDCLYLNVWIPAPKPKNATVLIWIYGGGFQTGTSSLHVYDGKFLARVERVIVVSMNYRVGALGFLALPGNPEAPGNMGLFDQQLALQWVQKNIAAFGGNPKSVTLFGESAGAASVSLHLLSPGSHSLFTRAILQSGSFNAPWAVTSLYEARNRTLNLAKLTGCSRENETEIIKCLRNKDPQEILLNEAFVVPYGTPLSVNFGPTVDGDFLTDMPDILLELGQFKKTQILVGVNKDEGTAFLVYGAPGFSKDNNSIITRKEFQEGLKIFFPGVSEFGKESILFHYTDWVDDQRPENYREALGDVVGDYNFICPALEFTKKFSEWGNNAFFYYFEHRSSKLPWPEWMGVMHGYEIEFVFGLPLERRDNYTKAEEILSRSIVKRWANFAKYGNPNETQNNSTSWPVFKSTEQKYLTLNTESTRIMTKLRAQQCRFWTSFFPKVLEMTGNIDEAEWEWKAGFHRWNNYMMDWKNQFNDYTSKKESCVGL
Method: as §1, §2, §3

AChE = AChE (Homo sapiens, UniProt P22303); experiment: Synergism of antipsychotics with donepezil/rivastigmine (binary mixtures), AChE; settings: ComboSyn;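 note: antipsychotic concentration kept fixed across all measurements, selected from estimated therapeutic plasma levels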
Sequence of AChE (P22303 32-617 isoform P22303-2 limits assumed): as the sequence (P22303 32-617 isoform P22303-2 limits assumed) above
Text: (§6) In turn, the concentrations of antipsychotics were constant in every measurement, and were chosen on the basis of estimated therapeutic plasma concentrations.
(§7) Automatic simulation of synergism and antagonism at all doses or effect levels is possible by computer software, based on algorithms. Calculation of the combination index (CI) and isobologram analyses enable to quantitatively determine drug interactions, where CI < 1, =1 and >1 indicate synergism, additive effect and antagonism, respectively. […] The software also allowed us to display the dose–effect curve, the median–effect plot and the dose-reduction index (DRI) plot [36].

BuChE = BuChE (Homo sapiens, UniProt P06276); experiment: Synergism of antipsychotics with donepezil/rivastigmine (binary mixtures), BuChE;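 note: combination index derived by median-effect analysis of combined drug effects on the cholinesterase, with values below 1 meaning synergism, exactly 1 additivity and above 1 antagonism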
Sequence of BuChE (P06276 29-602): as the sequence (P06276 29-602) above
Text: as §6, §7

astrocytes = experiment: WST-1 viability under AAPH-induced oxidative stress, astrocytes; type: cell-based, human; settings: for astrocyte viability compared with the control (pure AAPH): benperidol 5 and 10 μg/L, penfluridol 12.5 μg/L, pimozide 15 μg/L, promazine 25 and 50 μg/L
Method: (§4) WST-1 assay (Takara, Takara Bio Europe, Saint-Germain-en-Laye, France) was used to assess the effects of antipsychotics on the growth of HUVEC and astrocytes. The experiments were conducted as described previously. HUVEC were seeded at a density of 7500 cells, and astrocytes at 5000 cells per well on 96-well microplates and cultured for 24 h followed by treatment with compounds at ½ × TPCmax and TPCmax or pure medium as a control (v = 100 μL) for another 24 h (37 °C, 5% CO2). Subsequently, the cells were washed with culture medium (100 μL) and WST-1 reagent diluted in medium (10 μL of reagent + 90 μL of medium) was added. The plates were incubated at 37 °C in 5% CO2 for another 90 min for HUVEC and 60 min for astrocytes. The absorbance was read at 450 nm using a microplate reader (iMARK, Bio-Rad, Hercules, CA, USA). The cells viability was expressed as a percentage of the control samples which constituted 100% viability.
(§5) Moreover, the WST-1 assay was used to evaluate potential protective effects of antipsychotics on the growth of HUVEC and astrocytes under conditions of AAPH-induced oxidative stress. The experimental conditions were the same as in viability studies. AA at the final concentration of 10 μg/mL was used as an antioxidant control. After reaching the confluence, the antipsychotics were added at concentrations equaling ½ × TPCmax and TPCmax. After 1 h incubation under standard conditions, 50 μL AAPH was added to the wells containing tested compounds or AA. The AAPH concentration was chosen on the basis of preliminary experiments—17.5 mmol/L in HUVEC experiments, and 15.0 mmol/L in the case of astrocytes.

[3] = target: T3, recombinant human β-amyloid (1–42) (Homo sapiens, UniProt P05067); experiment: Beta-amyloid aggregation, Thioflavin T fluorescence; type: biochemical
T3 construct: recombinant human β-amyloid (1–42; ultrapure); purchased Sigma-Aldrich (St. Louis, MO, USA)
T3 sequence (P05067 672-713 limits assumed): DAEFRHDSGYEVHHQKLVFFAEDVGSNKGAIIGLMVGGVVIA
Method: Aβ42 peptide was dissolved in DMSO and left to hydrate for a few minutes. The solution was centrifuged at 10,000 rpm for 5 min at 4 °C to separate any precipitated material. The solution at a concentration of 220 μmol/L was stored in small aliquots at a temperature of −30 °C and before each experiment it was restored at 37 °C for 15 min. Test samples containing Aβ42 solution at the final concentration of 20 μmol/L was incubated with antipsychotics at concentrations equaling their TPC and 1/2 × TPC (v = 10 µL). The final volume of the test samples was 100 μL. The positive control constituted a sample of Aβ42 peptide, whereas the negative control contained tannic acid at the final concentrations of 0.1 µmol/L and 10 µmol/L. The fibrillation reaction was set up by addition of thioflavin ThT dye at a concentration of 5 µmol/L. The fluorescence intensity was measured at room temperature with Ex/Em = 440 nm/484 nm (Synergy H1; BioTek, Winooski, VT, USA). The measurements of fluorescence intensity expressed as relative fluorescence units (RFU) were taken at 10, 30, 60 and 90 min and then after 24 and 48 h. The fluorescence intensity measured for control equaled 100% of Aβ aggregation and it was used to estimate the inhibitory properties of the tested antipsychotics.

HUVEC cells = experiment: WST-1 viability under AAPH-induced oxidative stress, HUVEC; type: cell-based, human; settings: AAPH 17.5 mmol/L, relative to pure medium control
Method: as §4, §5

[4] = donepezil 0.005 μmol/L + antipsychotic at TPCmax, CI < 1 synergism, > 1 antagonism
[5] = donepezil 0.01 μmol/L + antipsychotic at TPCmax
[6] = donepezil 0.02 μmol/L + antipsychotic at TPCmax
[7] = donepezil 0.05 μmol/L + antipsychotic at TPCmax
[8] = donepezil 0.1 μmol/L + antipsychotic at TPCmax
[9] = rivastigmine 5 μmol/L + antipsychotic at TPCmax
[10] = rivastigmine 10 μmol/L + antipsychotic at TPCmax
[11] = rivastigmine 15 μmol/L + antipsychotic at TPCmax
[12] = rivastigmine 25 μmol/L + antipsychotic at TPCmax
[13] = rivastigmine 40 μmol/L + antipsychotic at TPCmax
[14] = rivastigmine 50 μmol/L + antipsychotic at TPCmax
[15] = rivastigmine 75 μmol/L + antipsychotic at TPCmax
[16] = rivastigmine 100 μmol/L + antipsychotic at TPCmax
[17] = donepezil 2 μmol/L + antipsychotic at TPCmax, ComboSyn
[18] = donepezil 5 μmol/L + antipsychotic at TPCmax, ComboSyn
[19] = donepezil 10 μmol/L + antipsychotic at TPCmax, ComboSyn
[20] = donepezil 20 μmol/L + antipsychotic at TPCmax, ComboSyn
[21] = donepezil 50 μmol/L + antipsychotic at TPCmax, ComboSyn
[22] = donepezil 100 μmol/L + antipsychotic at TPCmax, ComboSyn
[23] = rivastigmine 0.05 μmol/L + antipsychotic at TPCmax, ComboSyn
[24] = rivastigmine 0.1 μmol/L + antipsychotic at TPCmax, ComboSyn
[25] = rivastigmine 0.25 μmol/L + antipsychotic at TPCmax, ComboSyn
[26] = rivastigmine 0.5 μmol/L + antipsychotic at TPCmax, ComboSyn
[27] = rivastigmine 0.75 μmol/L + antipsychotic at TPCmax, ComboSyn
[28] = rivastigmine 1 μmol/L + antipsychotic at TPCmax, ComboSyn
[29] = rivastigmine 2.5 μmol/L + antipsychotic at TPCmax, ComboSyn
[30] = rivastigmine 5 μmol/L + antipsychotic at TPCmax, ComboSyn
[31] = ½ × TPC (bromperidol 12.5 μg/L, quetiapine 200 μg/L)

SMILES	CI (combination index), AChE (AChE; [4])	CI (combination index), AChE (AChE; [5])	CI (combination index), AChE (AChE; [6])	CI (combination index), AChE (AChE; [7])	CI (combination index), AChE (AChE; [8])	CI (combination index), AChE (AChE; [9])	CI (combination index), AChE (AChE; [10])	CI (combination index), AChE (AChE; [11])	CI (combination index), AChE (AChE; [12])	CI (combination index), AChE (AChE; [13])	CI (combination index), AChE (AChE; [14])	CI (combination index), AChE (AChE; [15])	CI (combination index), AChE (AChE; [16])	CI (combination index), BuChE (BuChE; [17])	CI (combination index), BuChE (BuChE; [18])	CI (combination index), BuChE (BuChE; [19])	CI (combination index), BuChE (BuChE; [20])	CI (combination index), BuChE (BuChE; [21])	CI (combination index), BuChE (BuChE; [22])	CI (combination index), BuChE (BuChE; [23])	also measured
O=C(CCCN1CCC(n2c(O)nc3ccccc32)CC1)c1ccc(F)cc1 [Benperidol, benperidol]	0.83	1.09	1.04	1.02	1.24	0.31	0.44	0.48	0.57	0.62	0.63	0.66	0.65	0.40	0.50	0.57	0.60	0.69	0.84	0.27	AChE reaction velocity ([1]; 75 µg/L, control 0.258 ± 0.016 A/min): 0.250 ± 0.015 A/min; AChE reaction velocity ([1]; 100 µg/L, control 0.258 ± 0.016 A/min): 0.239 ± 0.014 A/min; BuChE reaction velocity ([2]; 75 µg/L): 0.283 ± 0.029 A/min; BuChE reaction velocity ([2]; 100 µg/L): 0.279 ± 0.021 A/min; CI (combination index), BuChE (BuChE; [24]): 0.32; CI (combination index), BuChE (BuChE; [25]): 0.56; CI (combination index), BuChE (BuChE; [26]): 0.91; CI (combination index), BuChE (BuChE; [27]): 0.95; CI (combination index), BuChE (BuChE; [28]): 1.00; CI (combination index), BuChE (BuChE; [29]): 1.08; CI (combination index), BuChE (BuChE; [30]): 1.00; astrocyte viability compared with the control (pure AAPH) (astrocytes): statistically significant increase; astrocyte viability under AAPH (astrocytes; ½ × TPC (benperidol 5 μg/L, bromperidol 12.5 μg/L), AAPH 15 mmol/L): 81.9%; inhibition of Aβ ([3]; 10 μg/L, time range from 10 min to 24 h incubation): 42.1–53.3%; viability of HUVEC under AAPH (HUVEC cells; [31]): 82.9%
O=c1[nH]c2ccccc2n1C1CCN(CCCC(c2ccc(F)cc2)c2ccc(F)cc2)CC1 [Pimozide, pimozide]	0.50	0.63	0.62	0.65	0.68	0.26	0.37	0.38	0.47	0.56	0.57	0.62	0.65	0.57	0.55	0.78	0.76	0.91	0.79	> 2.50	AChE reaction velocity ([1]; 25 µg/L, control 0.263 ± 0.011 A/min): 0.253 ± 0.012 A/min; AChE reaction velocity ([1]; 100 µg/L, control 0.263 ± 0.011 A/min): 0.248 ± 0.009 A/min; CI (combination index), BuChE (BuChE; [24]): > 2.50; CI (combination index), BuChE (BuChE; [25]): > 2.50; CI (combination index), BuChE (BuChE; [26]): > 2.50; CI (combination index), BuChE (BuChE; [27]): > 2.50; CI (combination index), BuChE (BuChE; [28]): > 2.50; CI (combination index), BuChE (BuChE; [29]): > 2.50; CI (combination index), BuChE (BuChE; [30]): > 2.50; CI (combination index), BuChE (BuChE; rivastigmine (0.05–5 µmol/L) / pimozide at TPCmax, beyond the scale of Figure 5B): above 2.5; astrocyte viability compared with the control (pure AAPH) (astrocytes): statistically significant increase; effect on Aβ aggregation after a longer incubation time ([3]; 24 and 48 h, both tested concentrations): substantially inhibit; viability of HUVEC under AAPH (HUVEC cells; TPC (bromperidol 25 μg/L, quetiapine 400 μg/L)): 65.2%; viability of HUVEC under AAPH (HUVEC cells; [31]): 64.2%
